According to ChEMBL document CHEMBL5375985, “Discovery of JN122, a Spiroindoline-Containing Molecule that Inhibits MDM2/p53 Protein-Protein Interaction and Exerts Robust In Vivo Antitumor Efficacy” (J Med Chem, 2023):

Experiments:
HCT-116 [1] = assay: Antiproliferative activity against human HCT-116 cells harboring p53 assessed inhibition of cell growth incubated for 4 days by CCK-8 assay; conditions: HCT-116, 96 h
RKO = assay: Antiproliferative activity against human RKO cells harboring p53 assessed inhibition of cell growth incubated for 4 days by CCK-8 assay; conditions: 96 h
U2OS = assay: Antiproliferative activity against human U2OS cells harboring p53 assessed inhibition of cell growth incubated for 4 days by celltiter-glo assay; conditions: 96 h
[2] = target: Tumour suppressor protein p53/Mdm4 (Homo sapiens, UniProt O15151); assay: Binding affinity to MDM4/p53 (unknown origin) assessed as inhibition constant by FP assay
[3] = target: Tumour suppressor p53/oncoprotein Mdm2 (Homo sapiens, UniProt Q00987); assay: Binding affinity to MDM2/p53 (unknown origin) assessed as inhibition constant by FP assay
HCT-116 [4] = assay: Antiproliferative activity against human HCT-116 cells harboring p53 assessed inhibition of cell growth incubated for 4 days by celltiter-glo assay; conditions: HCT-116, 96 h
Protein Mdm4 = target: T1, Protein Mdm4 (Homo sapiens, UniProt O15151); assay: biochemical
T1 sequence (O15151 whole entry): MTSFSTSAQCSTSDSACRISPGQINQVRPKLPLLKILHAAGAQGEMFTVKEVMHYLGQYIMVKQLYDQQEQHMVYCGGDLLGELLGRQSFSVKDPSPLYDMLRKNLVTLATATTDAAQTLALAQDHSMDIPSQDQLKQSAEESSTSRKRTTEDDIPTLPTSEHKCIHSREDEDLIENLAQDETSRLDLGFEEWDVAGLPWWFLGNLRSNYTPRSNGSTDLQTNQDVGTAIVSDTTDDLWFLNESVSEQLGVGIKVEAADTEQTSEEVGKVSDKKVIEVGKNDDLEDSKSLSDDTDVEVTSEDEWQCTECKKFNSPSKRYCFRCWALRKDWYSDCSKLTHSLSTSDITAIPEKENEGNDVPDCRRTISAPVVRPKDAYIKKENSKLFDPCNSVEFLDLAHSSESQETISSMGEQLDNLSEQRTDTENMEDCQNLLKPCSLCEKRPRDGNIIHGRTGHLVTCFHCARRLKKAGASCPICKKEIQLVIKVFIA
Description: Inhibition of MDM4 (14 to 111 residues)/p53 (unknown origin) interaction expressed in Escherichia coli BL21(DE3) cells assessed as inhibition constant incubated for 1.5 hrs by competitive fluorescence polarization assay

A549 = assay: Growth inhibition of human A549 cells harboring p53 incubated for 4 days by CCK-8 assay; conditions: A549, 96 h
HepG2 = assay: Growth inhibition of human HepG2 cells harboring p53 incubated for 4 days by celltiter glo assay; conditions: HepG2, 96 h
NCI-H460 = assay: Growth inhibition of human NCI-H460 cells harboring p53 incubated for 4 days by CCK-8 assay; conditions: NCI-H460, 96 h
HeLa = assay: Growth inhibition of human HeLa cells harboring p53 incubated for 4 days by CCK-8 assay; conditions: 96 h
SW480 = assay: Growth inhibition of human SW480 cells incubated for 4 days by CCK-8 assay; conditions: SW480, 96 h
MSTO-211H = assay: cells; conditions: Homo sapiens, 96 h
Description: Growth inhibition of human MSTO-211H cells harboring p53 incubated for 4 days by CCK-8 assay

Tumour suppressor p53/oncoprotein Mdm2, sequence (P04637 whole entry): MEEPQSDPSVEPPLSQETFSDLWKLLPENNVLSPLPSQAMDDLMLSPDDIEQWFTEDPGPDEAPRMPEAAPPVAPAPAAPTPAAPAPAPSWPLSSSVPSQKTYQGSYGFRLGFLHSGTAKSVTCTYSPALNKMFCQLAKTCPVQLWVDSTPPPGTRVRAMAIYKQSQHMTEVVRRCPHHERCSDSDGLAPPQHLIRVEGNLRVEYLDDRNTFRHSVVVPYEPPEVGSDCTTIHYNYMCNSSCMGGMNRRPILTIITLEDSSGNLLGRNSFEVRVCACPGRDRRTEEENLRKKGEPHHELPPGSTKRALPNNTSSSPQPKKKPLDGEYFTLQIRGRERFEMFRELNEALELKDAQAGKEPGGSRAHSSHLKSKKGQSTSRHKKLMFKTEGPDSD
Tumour suppressor p53/oncoprotein Mdm2, sequence (Q00987 whole entry): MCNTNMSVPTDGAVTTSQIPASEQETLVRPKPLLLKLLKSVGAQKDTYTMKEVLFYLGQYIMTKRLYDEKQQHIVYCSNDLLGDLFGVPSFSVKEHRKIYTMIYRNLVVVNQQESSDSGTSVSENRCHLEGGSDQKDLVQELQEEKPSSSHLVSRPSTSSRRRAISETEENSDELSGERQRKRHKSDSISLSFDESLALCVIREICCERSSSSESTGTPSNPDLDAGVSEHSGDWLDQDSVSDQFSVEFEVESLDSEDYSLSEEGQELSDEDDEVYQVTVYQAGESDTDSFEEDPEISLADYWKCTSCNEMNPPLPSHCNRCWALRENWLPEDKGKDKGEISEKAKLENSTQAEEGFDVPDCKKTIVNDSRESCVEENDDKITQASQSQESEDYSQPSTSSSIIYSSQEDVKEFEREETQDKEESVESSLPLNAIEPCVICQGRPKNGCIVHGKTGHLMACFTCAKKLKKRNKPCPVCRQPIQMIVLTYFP
Tumour suppressor protein p53/Mdm4, sequence (P04637 whole entry, one chain of several): as the sequence (P04637 whole entry) above

Structure (SMILES) | IC50 (HCT-116 [1]) | IC50 (RKO) | IC50 (U2OS) | further results
CCN1[C@@H](CC(C)(C)C)[C@@]2(CNc3cc(Cl)ccc32)[C@@H](c2ccccc2Cl)[C@@H]1C(=O)Nc1ccc(C(=O)O)cc1OC | 2040 nM | 5240 nM | 2820 nM | –
O=C1CN(C(=O)N2C(c3ccc4c(c3)C(=O)NCC(=O)N4c3ccccc3)=N[C@@H](c3ccc(Cl)cc3)[C@H]2c2ccc(Cl)cc2)CCN1 | – | – | – | Ki [2]: 10.8 nM; Ki [3]: 2.1 nM
CCN1[C@@H](CC(C)(C)C)[C@@]2(CNc3cc(Cl)ccc32)[C@@H](c2ccccc2F)[C@@H]1C(=O)Nc1ccc(C(=O)O)cc1OC | 865 nM | 2940 nM | 3410 nM | –
COc1cc(C(=O)O)ccc1NC(=O)[C@@H]1N[C@@H](CC(C)(C)C)[C@@]2(CNc3cc(Cl)ccc32)[C@H]1c1cccc(F)c1 | 1.3 nM | 66.9 nM | – | –
CCN1[C@@H](CC(C)(C)C)[C@@]2(CNc3cc(Cl)ccc32)[C@@H](c2cccc(C)c2)[C@@H]1C(=O)Nc1ccc(C(=O)O)cc1OC | 144 nM | 1010 nM | 625 nM | –
COc1cc(C(=O)O)ccc1NC(=O)[C@@H]1N[C@@H](CC(C)(C)C)[C@@]2(CNc3cc(Cl)ccc32)[C@H]1c1cccc(Cl)c1 | – | 12.9 nM | – | IC50 (HCT-116 [4]): < 1 nM
CCN1[C@@H](CC(C)(C)C)[C@@]2(CNc3ccc(Cl)cc32)[C@@H](c2cccc(Cl)c2Cl)[C@@H]1C(=O)Nc1ccc(C(=O)O)cc1OC | 1400 nM | 4430 nM | 1840 nM | –
CCN1[C@@H](CC(C)(C)C)[C@@]2(CNc3cc(Cl)ccc32)[C@@H](c2cccc(F)c2)[C@@H]1C(=O)Nc1ccc(C(=O)O)cc1OC | 25.7 nM | 172 nM | 304 nM | –
COc1cc(C(=O)O)ccc1NC(=O)[C@@H]1N[C@@H](CC(C)(C)C)[C@@]2(CNc3cc(Cl)ccc32)[C@H]1c1cccc(C)c1 | 10 nM | 436 nM | – | –
CCN1[C@@H](CC(C)(C)C)[C@@]2(CNc3cc(Cl)ccc32)[C@@H](c2cccc(Cl)c2Cl)[C@@H]1C(=O)Nc1ccc(C(=O)O)cc1OC | 75.5 nM | 330 nM | 647 nM | –
CNC(=O)c1ccc(NC(=O)[C@@H]2N[C@@H](CC(C)(C)C)[C@@]3(CNc4cc(Cl)ccc43)[C@H]2c2cccc(Cl)c2F)c(OC)c1 | 22 nM | 243 nM | – | Ki (Protein Mdm4): > 27 nM
COc1ccc(C2=N[C@@H](c3ccc(Cl)cc3)[C@@H](c3ccc(Cl)cc3)N2C(=O)N2CCNC(=O)C2)c(OC(C)C)c1 [NUTLIN-3] | 1040 nM | 1920 nM | – | IC50 (A549): 1880 nM; IC50 (HepG2): 2050 nM; IC50 (NCI-H460): 6.49 nM; IC50 (HeLa): 28.2 nM; IC50 (SW480): 24.1 nM; IC50 (MSTO-211H): 2800 nM
